Results reported in US12552783B2, “Modulators of proteolysis and associated methods of use” (Arvinas Operations, Inc., priority 2018, dated 2026).

Molecular target: KRas (Homo sapiens, UniProt P01116, G12C)
Assay: KRas degradation in SW1573 cells by Western blot, normalized to GAPDH (data of Table 14)
Type: cell-based
Details: SW1573 cells
Procedure: Cell Lines, Antibodies, and Reagents. NCI-H2030 (CRL-5914) and SW1573 (CRL-2170) cells were purchased from ATCC. Both cell lines are homozygous for the G12C mutation in KRas. NCI-H2030 cells were cultured in RPMI-1640 medium containing 1% penicillin-streptomycin and 10% fetal bovine serum (FBS). SW1573 cells were cultured in DMEM containing 1% penicillin-streptomycin and 10% FBS. The KRas detection antibody (Cat. No. LS-C175665) was purchased from LifeSpan Biosciences and was used at a dilution of 1:2000. GAPDH was detected using an antibody purchased from Cell Signaling Technology (Cat. No. 5174) and was diluted 1:3000. Secondary anti-mouse and anti-rabbit detection antibodies were purchased from Cell Signaling Technology (Cat. Nos. 7076 and 7074, respectively).
Compound Treatment and Western Blotting of the Data of Table 14. Either NCI-H2030 or SW1573 cells were plated in 12-well plates and allowed to adhere overnight at 37° C. in an incubator containing 5% CO2. The following day, the medium was replaced with the appropriate medium lacking FBS to induce starvation. Cells were returned to the incubator for an additional 24 hours following media exchange. […] Cells were treated with VHL-based compounds for 24 hours and all other compounds for 72 hours. Following treatment, cells were lysed in RIPA buffer (Thermo Fisher Cat. No. 89900) containing phosphatase (Thermo Fisher Cat. No. 1861277) and protease (Thermo Fisher Cat. No. 78429) inhibitor cocktails. Lysates were cleared at 13,000 rpm for 15 minutes and supernatants were assayed for total protein concentration using the Pierce BCA assay system (Thermo Fisher Cat. No. 23225). For each sample, 10 μg total protein was resolved on a 12% Bis-Tris gel and then transferred to a nitrocellulose membrane. After blocking in 3% BSA in TBST (Tris-buffered Saline with 0.1% Tween-20) for 1 hour at room temperature, membranes were probed with the primary antibody (LS Bio Cat. No. LS-C175665) overnight at 4° C. After incubation with the secondary antibody, the following day membranes were visualized using the SuperSignal™ West Femto substrate (Thermo Fisher Cat. No. 34095). The KRas signal in each lane was normalized to GAPDH and percent degradation was either estimated as less than 25% by visual inspection (C in Table 13) or quantitated relative to the DMSO control lane using BIO-RAD Image Lab 5.2.1, and all data was plotted using GraphPad PRISM 6.07.
DC50 is the half-maximal degradation concentration—i.e., the concentration at which 50% degradation is observed. DMax is the maximum degradation efficacy is achieved—i.e., the maximal degradation observed) degradation data.

Percent Degradation at Indicated Concentration (μM) (0.1 μM)	Percent Degradation at Indicated Concentration (μM) (0.3 μM)	Percent Degradation at Indicated Concentration (μM) (1 μM)	SMILES
C (Percent Degradation: C ≤ 35)	C (Percent Degradation: C ≤ 35)	C (Percent Degradation: C ≤ 35)	C=CC(=O)N1CCN(c2nc(O[C@H](C)CN3CCC(OCCOCCOCCOCCOCCNc4cccc5c4C(=O)N(C4CCC(=O)NC4=O)C5=O)CC3)nc3c2CCN(c2cc(O)cc4ccccc24)C3)CC1 (stereo partly drawn) [compound 415]
C (Percent Degradation: C ≤ 35)	C (Percent Degradation: C ≤ 35)	C (Percent Degradation: C ≤ 35)	C=CC(=O)N1CCN(c2nc(O[C@H](C)CN3CCC(OCCOCCOc4ccc5c(c4)C(=O)N(C4CCC(=O)NC4=O)C5=O)CC3)nc3c2CCN(c2cc(O)cc4ccccc24)C3)CC1 (stereo partly drawn) [compound 417, 5-(2-(2-((1-((R)-2-((4-(4-acryloylpiperazin-1-yl)-7-(3-hydroxynaphthalen-1-yl)-5,6,7,8-tetrahydropyrido[3,4-d]pyrimidin-2-yl)oxy)propyl)piperidin-4-yl)oxy)ethoxy)ethoxy)-2-(2,6 dioxopiperidin-3-yl)isoindoline-1,3-dione]
C (Percent Degradation: C ≤ 35)	C (Percent Degradation: C ≤ 35)	C (Percent Degradation: C ≤ 35)	C=CC(=O)N1CCN(c2nc(O[C@H](C)CN3CCC(OCCOCCOCCOCCOCCOc4ccc5c(c4)C(=O)N(C4CCC(=O)NC4=O)C5=O)CC3)nc3c2CCN(c2cc(O)cc4ccccc24)C3)CC1 (stereo partly drawn) [compound 420, 5-((14-((1-((R)-2-((4-(4-acryloylpiperazin-1-yl)-7-(3-hydroxynaphthalen-1-yl)-5,6,7,8-tetrahydropyrido[3,4-d]pylimidin-2-yl)oxy)propyl)piperidin-4-yl)oxy)-3,6,9,12-tetraoxatetradecyl)oxy)-2-(2,6-dioxopiperidin-3-yl)isoindoline-1,3-dione]
C (Percent Degradation: C ≤ 35)	C (Percent Degradation: C ≤ 35)	C (Percent Degradation: C ≤ 35)	C=CC(=O)N1CCN(c2nc(O[C@H](C)CN3CCC(OCCOc4ccc5c(c4)CN(C4CCC(=O)NC4=O)C5=O)CC3)nc3c2CCN(c2cc(O)cc4ccccc24)C3)CC1 (stereo partly drawn) [compound 421]
C (Percent Degradation: C ≤ 35)	C (Percent Degradation: C ≤ 35)	C (Percent Degradation: C ≤ 35)	C=CC(=O)N1CCN(c2nc(O[C@H](C)CN3CCC(OCCOCCOCCOCCOc4ccc5c(c4)CN(C4CCC(=O)NC4=O)C5=O)CC3)nc3c2CCN(c2cc(O)cc4ccccc24)C3)CC1 (stereo partly drawn) [compound 424, 3-(5-(2-(2-(2-(2-((1-((R)-2-((4-(4-acryloylpiperazin-1-yl)-7-(3-hydroxynaphthalen-1-yl)-5,6,7,8-tetrahydropyrido[3,4-d]pyrimidin-2-yl)oxy)propyl)piperidin-4-yl)oxy)ethoxy)ethoxy)ethoxy)ethoxy)-1-oxoisoindolin-2-yl)piperidine-2,6-dione]
C (Percent Degradation: C ≤ 35)	C (Percent Degradation: C ≤ 35)	C (Percent Degradation: C ≤ 35)	C=CC(=O)N1CCN(c2nc(O[C@H](C)CN3CCC(OCCOCCOCCOCCOCCOc4ccc5c(c4)CN(C4CCC(=O)NC4=O)C5=O)CC3)nc3c2CCN(c2cc(O)cc4ccccc24)C3)CC1 (stereo partly drawn) [compound 425, 3-(5-((14-((1-((R)-2-((4-(4-acryloylpiperazin-1-yl)-7-(3-hydroxynaphthalen-1-yl)-5,6,7,8-tetrahydropyrido[3,4-d]pyrimidin-2-yl)oxy)propyl)piperidin-4-yl)oxy)-3,6,9,12-tetraoxatetradecyl)oxy)-1-oxoisoindolin-2-yl)piperidine-2,6-dione]
C (Percent Degradation: C ≤ 35)	C (Percent Degradation: C ≤ 35)	C (Percent Degradation: C ≤ 35)	C=CC(=O)N1CCN(c2nc(O[C@H](C)CN3CCC(OCCOc4ccc5c(c4)C(=O)N(C4CCC(=O)NC4=O)C5=O)CC3)nc3c(F)c(-c4cc(O)cc5ccccc45)c(Cl)cc23)CC1 (stereo partly drawn) [compound 426, 5-(2-((1-((2R)-2-((4-(4-acryloylpiperazin-1-yl)-6-chloro-8-fluoro-7-(3-hydroxynaphthalen-1-yl)quinazolin-2-yl)oxy)propyl)piperidin-4-yl)oxy)ethoxy)-2-(2,6-dioxopiperidin-3-yl)isoindoline-1,3-dione]
C (Percent Degradation: C ≤ 35)	C (Percent Degradation: C ≤ 35)	C (Percent Degradation: C ≤ 35)	C=CC(=O)N1CCN(c2nc(O[C@H](C)CN3CCC(OCCOCCOc4ccc5c(c4)C(=O)N(C4CCC(=O)NC4=O)C5=O)CC3)nc3c(F)c(-c4cc(O)cc5ccccc45)c(Cl)cc23)CC1 (stereo partly drawn) [compound 427, 5-(2-(2-((1-((2R)-2-((4-(4-acryloylpiperazin-1-yl)-6-chloro-8-fluoro-7-(3-hydroxynaphthalen-1-yl)quinazolin-2-yl)oxy)propyl)piperidin-4-yl)oxy)ethoxy)ethoxy)-2-(2,6-dioxopiperidin-3-yl)isoindoline-1,3-dione]
C (Percent Degradation: C ≤ 35)	C (Percent Degradation: C ≤ 35)	C (Percent Degradation: C ≤ 35)	C=CC(=O)N1CCN(c2nc(O[C@H](C)CN3CCC(OCCOCCOCCOc4ccc5c(c4)C(=O)N(C4CCC(=O)NC4=O)C5=O)CC3)nc3c(F)c(-c4cc(O)cc5ccccc45)c(Cl)cc23)CC1 (stereo partly drawn) [compound 428, 5-(2-(2-(2-((1-((2R)-2-((4-(4-acryloylpiperazin-1-yl)-6-chloro-8-fluoro-7-(3-hydroxynaphthalen-1-yl)quinazolin-2-yl)oxy)propyl)piperidin-4-yl)oxy)ethoxy)ethoxy)ethoxy)-2-(2,6-dioxopiperidin-3-yl)isoindoline-1,3-dione]
C (Percent Degradation: C ≤ 35)	C (Percent Degradation: C ≤ 35)	C (Percent Degradation: C ≤ 35)	C=CC(=O)N1CCN(c2nc(O[C@H](C)CN3CCC(OCCOCCOCCOCCOc4ccc5c(c4)C(=O)N(C4CCC(=O)NC4=O)C5=O)CC3)nc3c(F)c(-c4cc(O)cc5ccccc45)c(Cl)cc23)CC1 (stereo partly drawn) [compound 429]
C (Percent Degradation: C ≤ 35)	C (Percent Degradation: C ≤ 35)	C (Percent Degradation: C ≤ 35)	C=CC(=O)N1CCN(c2nc(O[C@H](C)CN3CCC(OCCOCCOCCOCCOCCOc4ccc5c(c4)C(=O)N(C4CCC(=O)NC4=O)C5=O)CC3)nc3c(F)c(-c4cc(O)cc5ccccc45)c(Cl)cc23)CC1 (stereo partly drawn) [compound 430, 5-((14-((1-((2R)-2-((4-(4-acryloylpiperazin-1-yl)-6-chloro-8-fluoro-7-(3-hydroxynaphthalen-1-yl)quinazolin-2-yl)oxy)propyl)piperidin-4-yl)oxy)-3,6,9,12-tetraoxatetradecyl)oxy)-2-(2,6-dioxopiperidin-3-yl)isoindoline-1,3-dione]
